ChEMBL document CHEMBL4376829, “Discovery and biological evaluation of vinylsulfonamide derivatives as highly potent, covalent TEAD autopalmitoylation inhibitors” (Eur J Med Chem, 2019)
The source made the active and inactive calls. No cut-off for these calls is given here.

Columns and labels:
[1] = target: Rhodopsin kinase GRK7 (Homo sapiens) (UniProt Q8WTQ7); assay: Inhibition of full length recombinant human GRK7 at 10 uM using casein as substrate after 40 mins in presence of [gamma33P]ATP by scintillation counting method relative to control
[2] = target: T1, Transcriptional enhancer factor TEF-3 (Homo sapiens, UniProt Q15561); assay: Inhibition of N-terminal His6 tagged human TEAD4-YBD (217 to 434 residues) expressed in Escherichia coli C43 (DE3) cells assessed as reduction in autopalmitoylation at 200 nM preincubated for 2 hrs followed by palmitoyl alkyne-coenzyme A addition and measured after 30 mins immunoblot analysis relative to control
[3] = target: Histone-arginine methyltransferase CARM1 (Homo sapiens) (UniProt Q86X55); assay: Inhibition of human PRMT4 at 10 uM relative to control
[4] = system: Angiopoietin-1 receptor (Homo sapiens), Q02763 [Q939H,Q940H]; assay: Inhibition of human Tie2 Q939H/Q940H mutant (771 to end residues) at 10 uM using poly(Glu, Tyr) 4:1 as substrate measured after 40 mins in presence of [gamma33P]ATP by scintillation counting method relative to control
[5] = organism: Homo sapiens; assay: Inhibition of recombinant human Plk4 S34T mutant (1 to 273 residues) at 10 uM using casein as substrate measured after 120 mins in presence of [gamma33P]ATP by scintillation counting method relative to control
[6] = target: NUAK family SNF1-like kinase 2 (Homo sapiens) (UniProt Q9H093); assay: Inhibition of recombinant human full length NUAK2 at 10 uM using KKKVSRSGLYRSPSMPENLNRPR as substrate incubated for 40 mins in presence of [gamma-33P]-ATP by scintillation counting method relative to control
[7] = target: Protein kinase C beta type (Homo sapiens) (UniProt P05771); assay: Inhibition of recombinant human PKCbeta2 (2 to end residues) at 10 uM using histone H1 as substrate after 40 mins by in presence of [gamma33P]ATP by scintillation counting method relative to control
[8] = target: Tyrosine-protein kinase JAK1 (Homo sapiens) (UniProt P23458); assay: Inhibition of recombinant human JAK1 (866 to end residues) at 10 uM using GEEPLYWSFPAKK as substrate measured after 40 mins in presence of [gamm33P]ATP by scintillation counting method relative to control
[9] = target: 3-phosphoinositide-dependent protein kinase 1 (Homo sapiens) (UniProt O15530); assay: Inhibition of recombinant human PDK1 (52 to end residues) at 10 uM using KTFCGTPEYLAPEVRREPRILSEEEQEMFRDFDYIADWC as substrate measured after 40 mins in presence of [gamma33P]ATP by scintillation counting method relative to control
[10] = system: Phosphorylase b kinase gamma catalytic chain, liver/testis isoform (Homo sapiens), P15735 [F290L]; assay: Inhibition of recombinant human PhKgamma2 F290L mutant (1 to 301 residues) at 10 uM using KKLNRTLSFAEPG as substrate measured after 40 mins in presence of [gamma33P]ATP by scintillation counting method relative to control
[11] = organism: Homo sapiens; assay: Inhibition of full-length recombinant human PKBalpha S478G mutant at 10 uM using GRPRTSSFAEGKK as substrate after 40 mins by in presence of [gamma33P]ATP by scintillation counting method relative to control
[12] = target: Serine/threonine-protein kinase ULK1 (Homo sapiens) (UniProt O75385); assay: Inhibition of recombinant human ULK1 (1 to 314 residues) at 10 uM using casein as substrate measured after 40 mins in presence of [gamm33P]ATP by scintillation counting method relative to control
[13] = organism: Homo sapiens; assay: Inhibition of recombinant full-length human ATRIP/ATR M211T mutant at 10 uM using GST-cMyc-p53 as substrate measured after 40 mins by fluorescence assay relative to control
[14] = organism: Homo sapiens; assay: Inhibition of TEAD (unknown origin) expresssed in HEK293T cells assessed as reduction in luciferase activity at 10 to 20 uM by dual-luciferase reporter gene assay; type: cell-based
[15] = target: Tyrosine-protein kinase Yes (Homo sapiens) (UniProt P07947); assay: Inhibition of recombinant full-length human Yes at 10 uM using poly(Glu, Tyr) 4:1 as substrate measured after 40 mins in presence of [gamma33P]ATP by scintillation counting method relative to control
[16] = target: Serine/threonine-protein kinase Nek1 (Homo sapiens) (UniProt Q96PY6); assay: Inhibition of recombinant human NEK1 (1 to 505 residues) at 10 uM using RLGRDKYKTLRQIRQ as substrate measured after 40 mins in presence of [gamma33P]ATP by scintillation counting method relative to control
[17] = target: Serine/threonine-protein kinase ULK2 (Homo sapiens) (UniProt Q8IYT8); assay: Inhibition of recombinant human ULK2 (1 to 306 residues) at 10 uM using casein as substrate measured after 40 mins in presence of [gamm33P]ATP by scintillation counting method relative to control
[18] = target: TGF-beta receptor type-2 (Homo sapiens) (UniProt P37173); assay: Inhibition of recombinant human TGFBR2 (188 to end residues) at 10 uM using myelin basic protein as substrate measured after 120 mins in presence of [gamm33P]ATP by scintillation counting method relative to control
[19] = target: Ephrin type-B receptor 4 (Homo sapiens) (UniProt P54760); assay: Inhibition of human EphB4 (561 to end residues) using poly (Glu, Tyr) 4:1 as substrate at 10 uM after 40 mins in presence of [gamma-33P]-ATP by scintillation counting relative to control
[20] = target: T1, Transcriptional enhancer factor TEF-3; assay: Binding affinity to N-terminal His6-tagged human TEAD4-YBD (217 to 434 residues) expressed in Escherichia coli C43 (DE3) cells assessed as change in melting temperature at 1:2 ratio by SYPRO-dye based thermal shift assay
[21] = system: RAF proto-oncogene serine/threonine-protein kinase (Homo sapiens), P04049 [Y340D,Y341D]; assay: Inhibition of recombinant human c-RAF Y340D/Y341D mutant (360 to end residues) at 10 uM using inactive MEK1 as substrate measured after 40 mins in presence of [gamma33P]ATP by scintillation counting method relative to control
[22] = target: DNA (cytosine-5)-methyltransferase 1 (Homo sapiens) (UniProt P26358); assay: Inhibition of human DNMT1 at 10 uM after 1 hr by radioisotope-based assay relative to control
[23] = target: 5'-AMP-activated protein kinase catalytic subunit alpha-1 (Homo sapiens) (UniProt Q13131); assay: Inhibition of recombinant full length human AMPKalpha1 at 10 uM using AMARAASAAALARRR as substrate after 40 mins in presence of [gamma33P]ATP by scintillation counting method relative to control
[24] = target: PI3-kinase p110-alpha/p85-alpha (Homo sapiens) (UniProt P27986+P42336); assay: Inhibition of full-length recombinant human PI3K (p110a/p85a) at 10 uM using phosphatidylinositol 4,5-bisphosphate as substrate after 40 mins by fluorescence based assay relative to control; type: protein-complex assay

T1 sequence (Q15561 whole entry, the tested form may be a part): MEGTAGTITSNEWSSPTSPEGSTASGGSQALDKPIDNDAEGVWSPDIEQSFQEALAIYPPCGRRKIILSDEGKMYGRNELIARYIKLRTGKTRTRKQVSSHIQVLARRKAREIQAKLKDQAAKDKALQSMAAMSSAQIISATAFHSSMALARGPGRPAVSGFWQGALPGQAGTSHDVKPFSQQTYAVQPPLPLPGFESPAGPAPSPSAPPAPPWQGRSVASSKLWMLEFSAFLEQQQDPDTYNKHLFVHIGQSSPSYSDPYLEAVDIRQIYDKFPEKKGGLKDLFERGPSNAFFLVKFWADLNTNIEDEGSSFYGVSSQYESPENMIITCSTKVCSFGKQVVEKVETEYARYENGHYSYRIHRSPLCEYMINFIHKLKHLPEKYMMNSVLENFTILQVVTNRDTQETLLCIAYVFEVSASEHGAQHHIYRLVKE
Chain of Protein kinase C beta type (Homo sapiens) (P05771 2-671 limits assumed): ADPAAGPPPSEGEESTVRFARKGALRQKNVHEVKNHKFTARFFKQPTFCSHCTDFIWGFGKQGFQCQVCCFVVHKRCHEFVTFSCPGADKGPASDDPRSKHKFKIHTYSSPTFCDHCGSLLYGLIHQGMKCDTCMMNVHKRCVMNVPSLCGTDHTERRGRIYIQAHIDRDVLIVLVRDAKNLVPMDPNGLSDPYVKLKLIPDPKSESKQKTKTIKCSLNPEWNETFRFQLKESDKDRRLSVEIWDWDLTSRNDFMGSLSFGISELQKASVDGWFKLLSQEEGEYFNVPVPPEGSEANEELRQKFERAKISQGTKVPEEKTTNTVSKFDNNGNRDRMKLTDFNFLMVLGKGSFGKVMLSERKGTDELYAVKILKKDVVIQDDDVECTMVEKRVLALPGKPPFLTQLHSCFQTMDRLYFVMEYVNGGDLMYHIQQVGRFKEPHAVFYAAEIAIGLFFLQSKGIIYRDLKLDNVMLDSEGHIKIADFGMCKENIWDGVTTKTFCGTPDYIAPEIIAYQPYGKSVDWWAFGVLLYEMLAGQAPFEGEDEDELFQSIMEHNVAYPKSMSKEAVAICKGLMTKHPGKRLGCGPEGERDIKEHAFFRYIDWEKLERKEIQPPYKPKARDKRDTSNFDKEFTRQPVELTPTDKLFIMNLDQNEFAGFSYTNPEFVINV
Chain of Ephrin type-B receptor 4 (Homo sapiens) (P54760 whole entry, the tested form may be a part): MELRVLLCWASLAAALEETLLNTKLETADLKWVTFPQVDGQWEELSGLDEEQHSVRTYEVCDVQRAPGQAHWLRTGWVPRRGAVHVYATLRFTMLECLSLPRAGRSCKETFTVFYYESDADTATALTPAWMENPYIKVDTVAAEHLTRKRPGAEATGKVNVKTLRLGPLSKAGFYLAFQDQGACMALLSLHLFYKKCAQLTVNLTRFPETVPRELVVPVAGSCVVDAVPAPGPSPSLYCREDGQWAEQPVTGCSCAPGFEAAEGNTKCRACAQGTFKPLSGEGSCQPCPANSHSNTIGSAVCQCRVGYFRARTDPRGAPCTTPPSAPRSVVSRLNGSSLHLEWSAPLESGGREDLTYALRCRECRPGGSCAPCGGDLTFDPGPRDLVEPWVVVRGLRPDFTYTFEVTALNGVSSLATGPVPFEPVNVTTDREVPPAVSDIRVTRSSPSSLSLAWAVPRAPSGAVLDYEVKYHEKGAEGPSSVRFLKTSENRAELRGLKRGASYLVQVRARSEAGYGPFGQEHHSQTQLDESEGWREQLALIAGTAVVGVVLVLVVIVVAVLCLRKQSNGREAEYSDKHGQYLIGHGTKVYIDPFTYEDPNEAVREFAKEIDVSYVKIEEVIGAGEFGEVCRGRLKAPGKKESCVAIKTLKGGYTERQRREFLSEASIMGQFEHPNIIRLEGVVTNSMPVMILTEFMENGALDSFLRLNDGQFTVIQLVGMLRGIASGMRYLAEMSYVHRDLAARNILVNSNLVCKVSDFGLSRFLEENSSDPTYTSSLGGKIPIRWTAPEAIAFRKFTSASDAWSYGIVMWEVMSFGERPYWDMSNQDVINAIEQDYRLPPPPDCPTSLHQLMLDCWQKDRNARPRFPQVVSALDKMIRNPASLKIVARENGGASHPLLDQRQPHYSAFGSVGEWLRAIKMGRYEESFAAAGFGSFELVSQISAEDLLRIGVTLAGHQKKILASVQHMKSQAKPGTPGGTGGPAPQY
Chain of Serine/threonine-protein kinase Nek1 (Homo sapiens) (Q96PY6 whole entry, the tested form may be a part): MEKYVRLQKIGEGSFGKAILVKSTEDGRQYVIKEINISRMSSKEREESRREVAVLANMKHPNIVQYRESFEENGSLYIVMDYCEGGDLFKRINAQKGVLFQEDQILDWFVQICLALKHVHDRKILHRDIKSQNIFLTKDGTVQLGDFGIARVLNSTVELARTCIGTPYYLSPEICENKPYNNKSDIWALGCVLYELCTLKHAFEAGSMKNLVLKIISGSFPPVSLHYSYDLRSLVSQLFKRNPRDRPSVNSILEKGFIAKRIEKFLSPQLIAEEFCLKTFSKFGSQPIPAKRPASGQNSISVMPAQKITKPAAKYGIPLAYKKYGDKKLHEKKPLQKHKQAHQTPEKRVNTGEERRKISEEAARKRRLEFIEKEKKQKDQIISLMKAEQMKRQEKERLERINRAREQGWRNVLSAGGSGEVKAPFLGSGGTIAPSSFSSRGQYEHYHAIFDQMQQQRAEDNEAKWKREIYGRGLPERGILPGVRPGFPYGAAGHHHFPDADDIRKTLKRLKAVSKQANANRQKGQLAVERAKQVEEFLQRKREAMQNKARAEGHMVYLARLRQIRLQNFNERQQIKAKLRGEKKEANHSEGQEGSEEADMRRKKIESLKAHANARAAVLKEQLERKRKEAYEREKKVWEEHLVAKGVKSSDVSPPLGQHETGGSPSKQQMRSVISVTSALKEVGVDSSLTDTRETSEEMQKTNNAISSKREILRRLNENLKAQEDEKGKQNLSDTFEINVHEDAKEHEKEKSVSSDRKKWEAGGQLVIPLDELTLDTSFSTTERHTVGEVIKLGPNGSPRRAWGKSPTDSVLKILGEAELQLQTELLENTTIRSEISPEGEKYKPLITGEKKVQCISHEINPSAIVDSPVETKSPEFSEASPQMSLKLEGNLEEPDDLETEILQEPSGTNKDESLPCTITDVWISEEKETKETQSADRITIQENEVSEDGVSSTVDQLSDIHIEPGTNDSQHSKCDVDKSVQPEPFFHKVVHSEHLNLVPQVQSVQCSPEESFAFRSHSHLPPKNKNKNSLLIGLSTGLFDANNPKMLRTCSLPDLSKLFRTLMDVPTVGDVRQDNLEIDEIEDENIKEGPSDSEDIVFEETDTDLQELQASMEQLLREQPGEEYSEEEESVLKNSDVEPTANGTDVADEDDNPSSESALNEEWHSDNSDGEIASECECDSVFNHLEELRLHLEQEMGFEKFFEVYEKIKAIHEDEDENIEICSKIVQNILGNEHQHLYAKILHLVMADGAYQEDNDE
Chain of 3-phosphoinositide-dependent protein kinase 1 (Homo sapiens) (O15530 whole entry, looked up, the tested form may be a part, canonical isoform): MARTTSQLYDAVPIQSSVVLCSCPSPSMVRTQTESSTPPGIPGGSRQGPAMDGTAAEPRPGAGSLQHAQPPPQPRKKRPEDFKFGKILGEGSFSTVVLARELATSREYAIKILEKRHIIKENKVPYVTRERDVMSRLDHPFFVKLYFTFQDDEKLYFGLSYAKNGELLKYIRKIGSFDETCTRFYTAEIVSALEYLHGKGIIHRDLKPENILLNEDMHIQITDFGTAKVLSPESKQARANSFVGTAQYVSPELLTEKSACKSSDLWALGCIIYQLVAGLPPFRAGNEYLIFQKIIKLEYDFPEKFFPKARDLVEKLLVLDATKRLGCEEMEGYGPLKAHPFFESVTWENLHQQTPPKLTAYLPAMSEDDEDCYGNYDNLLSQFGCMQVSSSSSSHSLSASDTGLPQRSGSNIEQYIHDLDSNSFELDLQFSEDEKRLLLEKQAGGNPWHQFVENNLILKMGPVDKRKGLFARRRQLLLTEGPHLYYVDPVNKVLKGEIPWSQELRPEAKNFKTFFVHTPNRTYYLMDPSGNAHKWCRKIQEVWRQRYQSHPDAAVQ
Chain of NUAK family SNF1-like kinase 2 (Homo sapiens) (Q9H093 whole entry): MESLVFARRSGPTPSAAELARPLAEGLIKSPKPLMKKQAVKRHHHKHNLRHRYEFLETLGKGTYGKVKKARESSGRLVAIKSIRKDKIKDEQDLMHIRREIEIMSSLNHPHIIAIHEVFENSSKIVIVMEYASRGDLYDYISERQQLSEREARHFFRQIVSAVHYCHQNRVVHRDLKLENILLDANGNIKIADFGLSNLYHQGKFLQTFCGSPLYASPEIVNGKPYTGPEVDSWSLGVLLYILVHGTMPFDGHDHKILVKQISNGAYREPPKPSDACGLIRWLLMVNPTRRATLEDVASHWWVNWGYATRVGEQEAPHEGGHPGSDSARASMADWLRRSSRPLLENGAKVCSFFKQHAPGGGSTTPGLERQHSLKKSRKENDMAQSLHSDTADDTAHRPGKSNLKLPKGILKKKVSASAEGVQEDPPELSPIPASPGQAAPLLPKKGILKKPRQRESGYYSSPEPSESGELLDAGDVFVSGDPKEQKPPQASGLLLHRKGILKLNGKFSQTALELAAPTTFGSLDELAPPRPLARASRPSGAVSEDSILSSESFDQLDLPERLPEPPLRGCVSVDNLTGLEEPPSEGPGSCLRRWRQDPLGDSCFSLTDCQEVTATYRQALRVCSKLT
Chain of Phosphorylase b kinase gamma catalytic chain, liver/testis isoform (Homo sapiens), P15735 [F290L] (P15735 whole entry F290L, the tested form may be a part, canonical isoform): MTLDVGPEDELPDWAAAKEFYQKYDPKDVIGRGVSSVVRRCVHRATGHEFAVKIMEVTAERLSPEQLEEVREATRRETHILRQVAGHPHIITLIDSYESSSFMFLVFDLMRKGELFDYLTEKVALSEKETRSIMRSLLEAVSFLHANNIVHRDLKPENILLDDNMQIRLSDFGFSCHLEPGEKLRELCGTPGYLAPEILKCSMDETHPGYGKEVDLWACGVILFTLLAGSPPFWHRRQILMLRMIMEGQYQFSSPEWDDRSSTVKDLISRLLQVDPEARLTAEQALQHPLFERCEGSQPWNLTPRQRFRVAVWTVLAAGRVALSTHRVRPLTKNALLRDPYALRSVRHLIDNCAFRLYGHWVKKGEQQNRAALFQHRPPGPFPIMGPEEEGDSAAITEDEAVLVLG

## C=CS(=O)(=O)Nc1ccc(Cc2ccc3ccccc3c2)cc1
[1]
  inhibition: 4%
[2]
  inhibition: 72.5%
[3]
  inhibition: 5%
[4]
  inhibition: 18%
[5]
  inhibition: -2%
[6]
  inhibition: -6%
[7]
  inhibition: 4%
[8]
  inhibition: 7%
[9]
  inhibition: 3%
[10]
  inhibition: 6%
[11]
  inhibition: 9%
[12]
  inhibition: 7%
[13]
  inhibition: 3%
[14]
  inhibition: Active
[15]
  inhibition: 3%
[16]
  inhibition: -6%
[17]
  inhibition: 2%
[18]
  inhibition: 9%
[19]
  inhibition: 8%
[20]
  ΔTm: 7.4 °C
[21]
  inhibition: -8%
[22]
  inhibition: 15%
[23]
  inhibition: 2%
[24]
  inhibition: 16%
